In patent US9012458B2, “Antitumor agent using compounds having kinase inhibitory effect in combination” (Eisai R&D Management Co., Ltd., priority 2010, dated 2015):
Where a name gives a salt, the structure may show the parent alone.

How the values were obtained:
Format in all cases: in vivo
[1] = system: human ovarian cancer cell line (A2780); assay: Combined effect in model animal transplanted with human ovarian cancer cell line (A2780); conditions: A2780 s.c. in nude mouse, Compound A 10 mg/kg, Compound B 100 mg/kg, oral once daily, average ± standard deviation
Method: (§1) The human ovarian cancer cell line A2780 (ATCC) was cultured using a 10% FBS-containing RPMI 1640 medium (SIGMA) in a 5% CO2 incubator under the condition of 37° C. When the cells reached a state of approximately 80% confluency, the cells were collected using trypsin-EDTA. To these cells, a Hanks' Balanced Salt Solution containing 50% Matrigel was added to prepare a suspension at a concentration of 5.0×10^7 cells/mL. The cell suspension thus obtained was subcutaneously transplanted at the lateral side of the body of a nude mouse (CAnN.Cg-Foxn1nu/CrlCrlj, Charles River Laboratories Japan, Inc.) in an amount of 0.1 mL, where each group contained six mice. Compound A (10 mg/kg, once daily, for 10 days) and Compound B (100 mg/kg, once daily, for 10 days) were orally administered, either individually or both in a row.
Setting the initial day of administration at Day 0, the major axis and the minor axis of a tumor developed in each mouse were measured using Digimatic caliper (Mitsutoyo Corporation) thereafter on Day 3, 5, 8, and 10.
(§2) The tumor volume and the relative tumor volume were calculated according to the equations below. TV=major axis (mm)×minor axis^2 (mm^2)/2 RTV=TV on the day of measurement/TV on the initial day of administration

[2] = system: human malignant melanoma cell line (SEKI); assay: Combined effect in model animal transplanted with human malignant melanoma cell line (SEKI); conditions: SEKI s.c. in nude mouse, Compound A 10 mg/kg, Compound B 100 mg/kg, oral once daily, average ± standard deviation
Method: as §1, with “human malignant melanoma” for “human ovarian cancer”, “line SEKI (JCRB Cell bank)” for “line A2780 (ATCC)”, “FBS-containing RPM” for “FBS-containing RPMI”, “at” for “at a concentration of”, “mice. From 11 days after the transplantation,” for “mice.”, “for 17” for “for 10”
(§3) Setting the initial day of administration at Day 0, the major axis and the minor axis of a tumor developed in each mouse were measured using Digimatic caliper (Mitsutoyo Corporation) thereafter on Day 3, 7, 10, 14, and 17.
as §2

[3] = system: human glioblastoma cell line (U87MG); assay: Combined effect in model animal transplanted with human glioblastoma cell line (U87MG); conditions: U87MG s.c. in nude mouse, Compound A 10 mg/kg, Compound B 100 mg/kg, oral once daily, average ± standard deviation
Method: as §1, with “human glioblastoma” for “human ovarian cancer”, “line (U87MG)” for “line A2780”, “FBS-containing E-MEM” for “FBS-containing RPMI 1640”, “mouse (CAnN.Cg-FOXn1nu/CrlCrlj,” for “mouse (CAnN.Cg-Foxn1nu/CrlCrlj,”, “for 21” for “for 10”
Setting the initial day of administration at Day 0, the major axis and the minor axis of a tumor developed in each mouse were measured using Digimatic caliper (Mitsutoyo Corporation) thereafter on Day 2, 5, 7, 9, 12, 14, 16, 19, and 21.
as §2

[4] = system: human pancreatic cancer cell line (KP-4); assay: Combined effect in model animal transplanted with human pancreatic cancer cell line (KP-4); conditions: KP-4 s.c. in nude mouse, Compound A 10 mg/kg, Compound B 100 mg/kg, oral once daily, average ± standard deviation
Method: as §1, with “human pancreatic” for “human ovarian”, “line KP-4 (acquired from National Hospital Organization Kyushu Cancer Center)” for “line A2780 (ATCC)”, “at” for “at a concentration of”, “mice. From 11 days after the transplantation,” for “mice.”, “for 17” for “for 10”
as §3, §2

| Compound | RTV (relative tumor volume) Day 3 [1] | RTV (relative tumor volume) Day 5 [1] | RTV (relative tumor volume) Day 8 [1] | RTV (relative tumor volume) Day 10 [1] | RTV (relative tumor volume) Day 3 [2] | RTV (relative tumor volume) Day 7 [2] | RTV (relative tumor volume) Day 10 [2] | RTV (relative tumor volume) Day 14 [2] | RTV (relative tumor volume) Day 17 [2] | RTV (relative tumor volume) Day 2 [3] | RTV (relative tumor volume) Day 5 [3] | RTV (relative tumor volume) Day 7 [3] | RTV (relative tumor volume) Day 9 [3] | RTV (relative tumor volume) Day 12 [3] | RTV (relative tumor volume) Day 14 [3] | RTV (relative tumor volume) Day 16 [3] | RTV (relative tumor volume) Day 19 [3] | RTV (relative tumor volume) Day 21 [3] | RTV (relative tumor volume) Day 3 [4] | RTV (relative tumor volume) Day 7 [4] | also measured |
| --- | --- | --- | --- | --- | --- | --- | --- | --- | --- | --- | --- | --- | --- | --- | --- | --- | --- | --- | --- | --- | --- |
| COc1cc2nccc(Oc3ccc(NC(=O)NC4CC4)c(Cl)c3)c2cc1C(N)=O [Compound A, 4-(3-chloro-4-(cyclopropylaminocarbonyl)aminophenoxy)-7-methoxy-6-quinolinecarboxamide mesylate] | 1.92 ± 0.17 | 4.77 ± 0.85 | 9.51 ± 2.44 | 12.37 ± 3.53 | 1.71 ± 0.19 | 2.88 ± 0.35 | 3.74 ± 0.53 | 5.06 ± 0.49 | 5.92 ± 0.50 | 0.95 ± 0.08 | 1.27 ± 0.07 | 1.59 ± 0.16 | 1.85 ± 0.13 | 3.29 ± 0.32 | 4.76 ± 0.49 | 6.19 ± 0.95 | 9.60 ± 1.99 | 11.53 ± 2.57 | 1.67 ± 0.16 | 2.89 ± 0.74 | RTV (relative tumor volume) Day 10 [4]: 3.77 ± 1.26; RTV (relative tumor volume) Day 14 [4]: 4.83 ± 1.75; RTV (relative tumor volume) Day 17 [4]: 5.81 ± 2.17 |
| CN1CCN(C2CCN(C(=O)Nc3cc(Oc4ccc(NC(=O)C5(C(=O)Nc6ccc(F)cc6)CC5)c(F)c4)ccn3)CC2)CC1 [Compound B, N-(2-fluoro-4-{[2-({[4-(4-methylpiperazin-1-yl)piperidin-1-yl]carbonyl}amino)pyridin-4-yl]oxy}phenyl)-N′-(4-fluorophenyl)cyclopropane-1,1-dicarboxamide tartrate] | 2.23 ± 0.42 | 7.01 ± 1.54 | 15.70 ± 2.27 | 21.29 ± 2.76 | 1.76 ± 0.22 | 2.93 ± 0.57 | 4.06 ± 0.85 | 5.23 ± 0.20 | 5.80 ± 1.35 | 0.69 ± 0.05 | 0.61 ± 0.05 | 0.56 ± 0.10 | 0.57 ± 0.07 | 0.65 ± 0.08 | 0.73 ± 0.12 | 0.93 ± 0.13 | 1.65 ± 0.37 | 2.23 ± 0.51 | 1.71 ± 0.26 | 3.33 ± 1.06 | RTV (relative tumor volume) Day 10 [4]: 4.72 ± 1.55; RTV (relative tumor volume) Day 14 [4]: 6.53 ± 2.19; RTV (relative tumor volume) Day 17 [4]: 9.05 ± 3.71 |
